These results are taken from patent US20020048271A1, “Methods and composition for restoring conformational stability of a protein of the p53 family” (priority 1998, published 2002).

SMILES strings stand for the structures.

One test deals with T1, wild-type p53 DBD (Homo sapiens, UniProt P04637).
T1 construct: Recombinant DBD (residues 94-312) from wild-tvpe and mutant p53 proteins; made in house
T1 sequence (P04637 94-312): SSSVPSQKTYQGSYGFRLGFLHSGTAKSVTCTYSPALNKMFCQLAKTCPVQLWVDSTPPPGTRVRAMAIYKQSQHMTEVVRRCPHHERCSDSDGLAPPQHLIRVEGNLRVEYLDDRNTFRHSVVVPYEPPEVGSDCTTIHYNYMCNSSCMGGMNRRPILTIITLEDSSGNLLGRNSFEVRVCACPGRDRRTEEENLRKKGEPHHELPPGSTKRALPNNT
Put plainly: p53 DBD thermostabilization assay (ELISA for mAb1620 epitope). It is filed as biochemical. To be noted: 0.5 ng of p53 DBD heated at 45° C. for 30 minutes; read-out: SC50: concentration of compound required to preserve 50% of the epitope for mAb 1620. The method, then:
Thermostabilization Assay. Recombinant DBD (residues 94-312) from wild-tvpe and mutant p53 proteins and FLAG-tagged p53 DBD were prepared as described (Pavletich et al., 1993, Genes and Dev. 7, 2556-2564; Bullock et al., 1997, supra.). Mutant proteins used were 143A, 173A, 175S. 249S, and 273H. A number of small molecule organic compounds were tested. Compound stocks were dissolved in DMSO at 10 mg/ml and diluted prior to use. The proteins (0.25-1.0 ng/well) were diluted in a buffer containing 25 mM HEPES, pH 6.8, 150 mM KCl, 10 mM dithiothreitol and attached in 50 ul to Reacti-Bind microtiter plates (Pierce) for 35 minutes on ice. The wells were rinsed with 25 mM HEPES, pH 6.8, 150 mM KCl, compound or diluted DMSO vehicle added, and the plates incubated at the indicated temperatures. Incubation was terminated by placing the wells on ice; ELISA assays performed while maintaining the plates on ice in order to avoid further alterations of the epitopes. Wells were blocked for 1 hour with cold 5 percent skim milk (Difco) in HEPES/KCl buffer prior to addition of the primary antibodies. Monoclonal antibodies mAb1620, mAb240 (Calbiochem) and anti-FLAG M2 antibody (Eastman Kodak Company) were diluted at 1:100-1:250 in HEPES/KCl and added at 100 ul/well for 30 minutes. The plates were rinsed twice with cold HEPES/KCl buffer and incubated with horseradish peroxidase (HRP)-conjugated anti-mouse IgG (Boehringer Mannheim) for another 30 minutes. The HRP signal was developed using TMB developer (Pierce) and the optical density of the signal was read on a BioRad microplate reader set at 450 nm.
As for `C(=C\c1nc(N2CCOCC2)c2ccccc2n1)/c1ccccc1` [Compound 1B], the EC50 was > 300 µM.

As to `CN(C)CCCN1c2ccccc2Sc2ccccc21` [Compound 4B], the EC50 was > 300 µM.

As to `c1ccc2c(NCCN3CCOCC3)c3cccnc3cc2c1` [Compound 2B], the EC50 is > 300 µM.

For `CCN(CC)CCCNc1c2ccccc2cc2ncccc12` [Compound 3A], the EC50 is 50 µM.

Turning to `CCN(CC)CCCCNc1c2ccccc2cc2ncccc12` [Compound 3B], the EC50 was 120 µM.

In the case of `C(=C\c1nc(NCCCN2CCOCC2)c2ccccc2n1)/c1ccccc1` [Compound 1A], the EC50 amounted to 36 µM.

Consider `CC(CN(C)C)CN1c2ccccc2Sc2ccccc21` (stereo not shown) [Compound 4A], for which the EC50 was determined as 38 µM.

Turning to `c1ccc2c(NCCCN3CCOCC3)c3cccnc3cc2c1` [Compound 2A], the EC50 stood at 120 µM.

Another test deals with mutant p53 (position 173 or position 249) in Saos-2 cells. The test can be described thus: WAF1 and p53 expression, Western blot, Saos-2 cells with transfected mutant p53. It is filed as cell-based. To be noted: position 173 or 249 mutant; Compound X for 16 hours.
Protocol: WAF1 and p53 Expression. […] Protein concentrations were determined using Bradford reagent (BioRad) and 5 or 10 ug of cell lysate were loaded onto 8-16 percent gradient polyacrylamide/SDS gels (Novex). […] The blots were washed for one hour in three changes of Tris buffered saline with 0.1 percent Tween 20, before the addition of the secondary antibody, HRP-conjugated anti-mouse IgG. The bands were visualized using Renaissance ECL (DuPont) and exposure to Hyperfilm ECL (Amersham Life Science).
Take `COc1cccc2c1C(=O)c1c(O)c3c(c(O)c1C2=O)C[C@@](O)(C(=O)CO)C[C@@H]3O[C@H]1C[C@H](N)[C@H](O)[C@H](C)O1` [Adriamycin]: the “WAF1 expression in Saos-2 cells with mutant p53” value was “did not induce WAF-1 expression”.

A further test deals with mutant mouse p53.
Experiment: not given
To be noted: Brown et al., 1997; cited from earlier work.
For the compound `OCC(O)CO` [Glycerol], the “Concentration restoring nuclear localization of mutant mouse p53” value is on record as 600 mM.
